Reference: patent US6489308B1, “Inhibitors of serine protease activity, methods and compositions for treatment of nitric-oxide-induced clinical conditions” (Trustees of University of Technology Corporation, priority 1999, dated 2002)
“Also recorded” adds a separate entry of the source.

Tests used:
Assay type in all cases: cell-based
RAW 264.5 macrophages = experiment: NO release (nitrite, Greiss reagent) upon induction with LPS and γ-IFN in macrophagic cells; conditions: FIG. 1 / FIG. 4
iNOS protein = experiment: Western blot of iNOS protein induction by LPS and γ-interferon in macrophagic cells; conditions: γ-IFN and LPS, FIG. 2
NF-κB = experiment: Electrophoretic mobility shift assay of NF-κB induced by interleukin-18; conditions: incubation with IL-18, FIG. 3
p-ERK = experiment: Western blot of p-ERK (p42/p44 MAP kinase); conditions: FIG. 5
cytomegalovirus (CMV) = experiment: Cytomegalovirus replication in infected RAW 264.5 macrophages; conditions: RAW 264.5 macrophages infected with CMV; FIG. 6
[1] = tested on: herpes simplex virus (HSV); experiment: Herpes simplex virus replication; conditions: FIG. 7

Molecule	NO levels induced by γ-IFN and LPS (measured as NO2-) (RAW 264.5 macrophages)	induction of iNOS protein (iNOS protein)	induction of active NF-κB (NF-κB)	level and/or phosphorylation of p-ERK (p-ERK)	CMV replication (cytomegalovirus (CMV))	replication of HSV [1]
α1-antitrypsin: glycoprotein of MW 51,000 with 417 amino acids and 3 oligosaccharide side chains; naturally occurring serine protease inhibitor	efficiently block γ-IFN- and LPS-induced NO synthesis; also recorded: inhibits NO levels	inhibits induction of iNOS protein	inhibit the induction of active NF-κB	inhibits the level and/or phosphorylation of p-ERK	blocks CMV replication	inhibits replication of HSV
Cc1cccc(Cc2nnc(C(=O)C(NC(=O)[C@@H]3CCCN3C(=O)[C@@H](NC(=O)OCc3ccccc3)C(C)C)C(C)C)o2)c1 (stereo partly drawn) [CE-2072, benzyloxycarbonyl-L-valyl-N-[1-(2-[5-(3-methylbenzyl)-1,3,4-oxadiazolyl]carbonyl)-2-(S)-methylpropyl]-L-prolinamide, reference compound]	inhibits NO levels		inhibit the induction of active NF-κB			
